Reference: article PMC11945486, “TAS1R2/TAS1R3 Single-Nucleotide Polymorphisms Affect Sweet Taste Receptor Activation by Sweeteners: The SWEET Project” (Nutrients, 2025)
No end group written: not given here.

T1: human TAS1R2-WT/TAS1R3-L95P (Homo sapiens, UniProt Q7RTX0+Q8TE23, L95P)
T1 construct: expressed in transfected cells; host or cells: HEK293T stably expressing Gα16gust44
T1 sequence (Q8TE23 20-839): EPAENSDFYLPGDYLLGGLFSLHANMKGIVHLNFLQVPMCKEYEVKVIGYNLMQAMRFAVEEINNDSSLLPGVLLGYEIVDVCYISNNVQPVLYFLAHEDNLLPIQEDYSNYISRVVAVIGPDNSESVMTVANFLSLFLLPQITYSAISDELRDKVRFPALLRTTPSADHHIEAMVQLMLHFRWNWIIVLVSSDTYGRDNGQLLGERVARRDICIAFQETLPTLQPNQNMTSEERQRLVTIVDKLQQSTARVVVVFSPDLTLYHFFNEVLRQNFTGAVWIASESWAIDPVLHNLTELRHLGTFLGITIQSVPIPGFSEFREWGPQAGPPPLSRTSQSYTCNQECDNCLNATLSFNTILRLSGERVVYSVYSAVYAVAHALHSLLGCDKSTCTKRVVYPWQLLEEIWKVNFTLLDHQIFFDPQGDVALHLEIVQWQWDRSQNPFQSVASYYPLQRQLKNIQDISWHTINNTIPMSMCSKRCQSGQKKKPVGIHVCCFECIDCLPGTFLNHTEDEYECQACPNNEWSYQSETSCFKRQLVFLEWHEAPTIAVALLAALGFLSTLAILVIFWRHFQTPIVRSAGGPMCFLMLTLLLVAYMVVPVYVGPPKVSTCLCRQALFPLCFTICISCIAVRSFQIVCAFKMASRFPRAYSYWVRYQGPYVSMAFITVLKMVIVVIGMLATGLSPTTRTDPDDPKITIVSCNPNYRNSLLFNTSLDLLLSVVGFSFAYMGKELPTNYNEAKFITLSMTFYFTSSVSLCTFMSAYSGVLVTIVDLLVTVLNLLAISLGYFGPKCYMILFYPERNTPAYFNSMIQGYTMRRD
T1 sequence (Q7RTX0 21-852 L95P): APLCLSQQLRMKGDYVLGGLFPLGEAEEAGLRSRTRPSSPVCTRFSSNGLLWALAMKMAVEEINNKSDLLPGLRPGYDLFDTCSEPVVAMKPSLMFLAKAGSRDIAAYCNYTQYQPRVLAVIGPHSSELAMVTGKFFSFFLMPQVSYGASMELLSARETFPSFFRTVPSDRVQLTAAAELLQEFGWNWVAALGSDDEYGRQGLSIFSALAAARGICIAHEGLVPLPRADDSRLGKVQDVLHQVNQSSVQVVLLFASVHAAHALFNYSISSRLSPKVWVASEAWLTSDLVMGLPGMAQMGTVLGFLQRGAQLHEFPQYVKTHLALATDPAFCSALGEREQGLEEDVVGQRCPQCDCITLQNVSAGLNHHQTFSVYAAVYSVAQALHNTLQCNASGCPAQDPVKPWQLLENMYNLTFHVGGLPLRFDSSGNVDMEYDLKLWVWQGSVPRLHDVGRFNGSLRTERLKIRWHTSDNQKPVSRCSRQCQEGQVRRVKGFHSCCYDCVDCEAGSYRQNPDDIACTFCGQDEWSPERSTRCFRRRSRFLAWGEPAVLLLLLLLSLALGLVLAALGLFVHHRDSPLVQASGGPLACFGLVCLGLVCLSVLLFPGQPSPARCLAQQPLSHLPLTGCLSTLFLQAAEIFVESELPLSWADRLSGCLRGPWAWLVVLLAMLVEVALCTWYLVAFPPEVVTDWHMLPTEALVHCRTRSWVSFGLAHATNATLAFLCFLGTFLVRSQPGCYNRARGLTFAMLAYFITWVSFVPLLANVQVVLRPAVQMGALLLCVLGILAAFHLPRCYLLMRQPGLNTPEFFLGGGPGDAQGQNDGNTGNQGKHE

B1: thaumatin (protein)
chain: ATFEIVNRCSYTVWAAASKGDAALDAGGRQLNSGESWTINVEPGTKGGKIWARTDCYFDDSGSGICKTGDCGGLLRCKRFGRPPTTLAEFSLNQYGKDYIDISNIKGFNVPMDFSPTTRGCRGVRCAADIVGQCPAKLKAPGGGCNDACTVFQTSEYCCTTGKCGPTEYSRFFKRLCPDAFSYVLDKPTTVTCPGSSNYRVTFCPTA
modifications: Eight disulfides
notes: sweet-tasting plant protein, E957

Molecular target: T1, human TAS1R2-WT/TAS1R3-L95P
Experiment: Calcium mobilisation assay, TAS1R2-WT with TAS1R3 variant L95P
Type: cell-based
Details: for EC50 / Max ΔF/F0: "-": no activation; for Max ΔF/F0: maximal signal amplitude
Source text: The coding sequences for TAS1R2 and TAS1R3 were commercially synthesised, and the human codon was optimised for expression in human cells. The coding sequences of human TAS1R2 and TAS1R3 were subcloned and inserted into the mammalian expression vectors pcDNA6/myc-HisA and pcDNA4/myc-HisA (Invitrogen; Thermo Fisher Scientific; Illkirch, France) between the EcoRI and NotI restriction sites, generating the plasmids pcDNA6-TAS1R2 and pcDNA4-TAS1R3, respectively. To increase protein expression in mammalian cells, an upstream start codon was used, which was a sequence called MAX, corresponding to the QBI SP163 element also described in pcDNA4-HisMax (Invitrogen; Thermo Fisher Scientific; Illkirch, France). To measure the expression level of the receptor by immunohistochemistry, we used the FLAG sequence ([…]) in the C-terminal position, which encodes the FLAG tag epitope. SNP variants of TAS1R2 and TAS1R3 were constructed based on […], respectively, using site-directed mutagenesis (Genewiz; Leipzig, Germany).
The HEK293T cells were kindly provided by Jay P. Slack (Givaudan Flavors Corporation; Cincinnati, OH, USA). HEK293T cells stably transfected with Gα16gust44 [43, 67] were seeded in poly-D-lysine-coated clear-bottom black 96-well plates (0.35 × 10^5 cells/well) in high-glucose DMEM supplemented with 2 mM GlutaMAX, 10% dialysed foetal bovine serum with penicillin/streptomycin and G418 (400 μg/mL) at 37 °C and 6.3% CO2 in a humidified atmosphere as previously reported. […] As a negative control, HEK293T cells were mock-transfected with the empty expression vector. After a further 24 h of incubation, the HEK293T cells were washed with C1 buffer (130 mM NaCl, 5 mM KCl, 10 mM HEPES pH 7.4 and 2 mM CaCl2). The 96-well plates containing the cells were then stimulated with sweet-tasting compounds. […] Different concentration ranges were tested depending on the sweet compound injected. The Ca^2+ changes were expressed as fractional changes in fluorescent light intensity: ΔF/F = (F − F0)/F0, where F was the fluorescent light intensity at each point, and F0 was the value of emitted fluorescent light prior to stimulus application. To calculate dose–response relationships, the changes in fluorescence upon stimulus application were averaged, mock-subtracted and baseline-corrected. The dose–response data obtained were adjusted using a 4-parameter logistic equation. The half-maximal effective concentrations (EC50 values) and maximal signal amplitudes were calculated using SigmaPlot software (version 15.0) (Systat Software; San Jose, CA, USA).
For in vitro calcium mobilisation assay performed on hTAS1R2-SNPs, hTAS1R3-SNPs and mTAS1R3-I60T, 6 to 7 concentrations were tested for each sweet compound, plus buffer alone. All concentration–receptor combinations were measured in duplicate, and each experiment was repeated at least 4 times (8 wells/concentration). Results were expressed for each concentration as ΔF/F mean ± SEM and represented as dose–response curves.

Molecule | R1 = Variant EC50/WT EC50 | EC50 | Max ΔF/F0
C=C(C)[C@@H]1CC=C(/C=N/O)CC1 [Perillartine, perillartine] | 2.5 | 33.9 ± 2.8 µM | 0.14 ± 0.02
thaumatin | 2.6 |  | 0.89 ± 0.01
brazzein (QDKCKKVYENYPVSKCQLANQCNYDCKLDKHARSGECFYDEKRNLQCICDYCEY; ends and bridges not checked; cysteine pairing not given here; UniProt P56552 1-54, looked up) [sweet-tasting protein obtained by recombinant production using the yeast Pichia pastoris] | 19.3 |  | 0.10 ± 0.05
C[C@H](CC[C@@H](O[C@@H]1O[C@H](CO[C@@H]2O[C@H](CO)[C@@H](O)[C@H](O)[C@H]2O)[C@@H](O)[C@H](O)[C@H]1O[C@@H]1O[C@H](CO)[C@@H](O)[C@H](O)[C@H]1O)C(C)(C)O)[C@H]1CC[C@@]2(C)[C@@H]3CC=C4[C@@H](CC[C@H](O[C@@H]5O[C@H](CO[C@@H]6O[C@H](CO)[C@@H](O)[C@H](O)[C@H]6O)[C@@H](O)[C@H](O)[C@H]5O)C4(C)C)[C@]3(C)[C@H](O)C[C@]12C [Mogroside V, mogroside V] | 8.4 |  | 0.08
B1 |  | 27.4 ± 5.8 µM | 
